This experiment deals with TGFβ signal. Kind of experiment: TGFβ signal inhibitory activity, (SBE)4-Luc luciferase reporter in A549 cells. It counts as cell-based, human. Conditions: TGFβ-1 2 ng/ml, A549 (SBE)4-Luc; for inhibition at 10 µM / inhibition at 3 µM: Homo sapiens, A549, 4 h; for TGFβ inhibition, %: 4 hr. The procedure:
The TGFβ signal inhibitory activity of compounds according to the present invention was evaluated according to the method described in J. Boil. Chem., 273, 21145-21152 (1998). Specifically, a luciferase gene driving by four tandem binding sequences of Smad2/3, which are TGFβ signal transfer factors was used as a reporter gene ((SBE)4-Luc). This reporter gene was introduced into human lung cancer epithelial cells (A549) (available from ATCC) to establish a stable cell line expressing its gene. A test compound and TGFβ-1 (2 ng/ml) were added to the cells, and the mixture was cultured for 4 hr. Compounds according to the present invention synthesized in the above working examples were used as the test compound. After the culture, the luciferase activity of cells was measured by a chemiluminescence method (Steady Glo (trademark) luciferase assay system available from Promega). Likewise, the luciferase activity was measured for control cells, that is, cells which had been cultured with the addition of TGFβ only, and cells which had been cultured without the addition of TGFβ and the test compound. The TGFβ inhibition rate (%) was calculated based on the results of measurement according to the following equation: TGFβ inhibition rate (%)=(A−B)/(A−C)×100 wherein A, B and C have the following respective meanings: A: luciferase activity in the case where TGFβ1 was added and the test compound was not added (relative luciferase unit); B: luciferase activity in the case where both TGFβ1 and the test compound were added (relative luciferase unit); and C: luciferase activity in the case where neither TGFβ1 nor the test compound was added (relative luciferase unit). The test was carried out for each of a test compound concentration of 3 μM and a test compound concentration of 10 μM. For given test compounds, the test was further carried out for a test compound concentration of 1 μM.

Counter-ions that a name gives are not always drawn.

On to `COc1cc2c(Oc3cc(C)c(C)cc3C(C)=O)ccnc2cc1OCCCN1CCOCC1` [Compound 319, 1-{2-[6-Methoxy-7-(3-morpholin-4-yl-propoxy)-quinolin-4-yloxy]-4,5-dimethyl-phenyl}-ethanone], for which, where the note is “test compound 10 μM”, the inhibition (commonly the drop in the measured response relative to a control, in per cent) at 10 µM came to 100%.
Consider `COc1cc2nccc(Oc3ccc(C)cc3C(=O)c3ccccc3)c2cc1OC.Cl` [Compound 72, {2-[(6,7-Dimethoxy-4-quinolyl)oxy]-5-methylphenyl}-(phenyl)methanone hydrochloride], for which the “TGFβ inhibition, %” value (test compound 3 μM) was 98% and the “TGFβ inhibition, %” value (test compound 10 μM) amounted to 100%.
In the same order, the values of `COc1ccc(Oc2ccnc3cc(OC)c(OC)cc23)c(C(C)=O)c1.Cl` [Compound 177, 1-[2-(6,7-Dimethoxy-quinolin-4-yloxy)-5-methoxy-phenyl]-ethanone hydrochloride] are 94% and 100%.
On the same counts, the results for `COc1cc2c(Oc3cc(C)c(C)cc3C(C)=O)ccnc2cc1OCCCN1CCOCC1.Cl.Cl` [Compound 320, 1-{2-[6-Methoxy-7-(3-morpholin-4-yl-propoxy)-quinolin-4-yloxy]-4,5-dimethyl-phenyl}-ethanone hydrochloride] are 100% and 100%.
Turning to `C=CCO/N=C(\C)c1cc(C)c(C)cc1Oc1ccnc2cc(OC)c(OC)cc12` [Compound 197, 1-[2-(6,7-Dimethoxy-quinolin-4-yloxy)-4,5-dimethyl-phenyl]-ethanone o-allyl-oxime], for the setting “test compound 3 μM”, the inhibition at 3 µM was 40%.
Turning to `COc1cc2nccc(Oc3ccccc3C(=O)c3ccccc3)c2cc1OC.Cl` [Compound 63, {2-[(6,7-Dimethoxy-4-quinolyl)oxy]-phenyl}(phenyl)-methanone hydrochloride], the “TGFβ inhibition, %” value (test compound 3 μM) worked out at 57% and the “TGFβ inhibition, %” value (test compound 10 μM) is on record as 91%.
In the same order, the values of `COc1cc2c(Oc3cc4ccccc4nc3C)ccnc2cc1OCCN1CCOCC1.Cl.Cl.Cl` [Compound 366, 6-Methoxy-4-(2-methyl-quinolin-3-yloxy)-7-(2-morpholin-4-yl-ethoxy)-quinoline hydrochloride] are 100% and 100%.
Regarding `COc1cc2c(Oc3cc4ccccc4nc3C)ccnc2cc1OCCN1CCOCC1` [Compound 365, 6-Methoxy-4-(2-methyl-quinolin-3-yloxy)-7-(2-morpholin-4-yl-ethoxy)-quinoline], the inhibition at 3 µM (test compound 3 μM) came out at 100%. Moreover, the inhibition at 10 µM (test compound 10 μM) is 100%.
For the setting “test compound 3 μM”, `COc1cc2nccc(Oc3ccc(F)nc3I)c2cc1OC` [Compound 211, 4-(6-Fluoro-2-iodo-pyridin-3-yloxy)-6,7-dimethoxy-quinoline] displayed an inhibition at 3 µM of 87%. The same compound returned an inhibition at 10 µM (test compound 10 μM) of 100%.
In the same order, the values of `COc1cc2nccc(Oc3ccc(Cl)cc3C(=O)c3ccccc3)c2cc1OC` [Compound 68, {5-Chloro-2-[(6,7-dimethoxy-4-quinolyl)oxy]phenyl}-(phenyl)methanone] are 89% and 100%.
In the same order, the values of `COc1ccc(Oc2ccnc3cc(OC)c(OC)cc23)c(C(C)=O)c1` [Compound 36, 1-{2-[(6,7-Dimethoxy-4-quinolyl)oxy]-5-methoxyphenyl}-1-ethanone] are 95% and 100%.
On the same counts, the results for `COc1cc2nccc(Oc3cc(C)c(C)cc3C(=O)c3ccccc3)c2cc1OC` [Compound 76, {2-[(6,7-Dimethoxy-4-quinolyl)oxy]-4,5-dimethylphenyl}-(phenyl)methanone hydrochloride] are 95% and 100%.
As to `COc1cc2nccc(Oc3cc(C)c(C)cc3/C(C)=N/O)c2cc1OC` [Compound 195, 1-[2-(6,7-Dimethoxy-quinolin-4-yloxy)-4,5-dimethyl-phenyl]-ethanone oxime], for the setting “test compound 10 μM”, the inhibition at 10 µM amounted to 100%.
The compound `COc1cc2nccc(Oc3ccc(C)cc3C(=O)c3ccccc3)c2cc1OC` [Compound 71, {2-[(6,7-Dimethoxy-4-quinolyl)oxy]-5-methylphenyl}-(phenyl)methanone] showed an inhibition at 3 µM (test compound 3 μM) of 79%. The compound further displayed an inhibition at 10 µM (test compound 10 μM) of 100%.
`COc1cc2nccc(Oc3ccccc3C(=O)c3ccccc3)c2cc1OC` [Compound 62, {2-[(6,7-Dimethoxy-4-quinolyl)oxy]-phenyl}(phenyl)-methanone] showed an inhibition at 3 µM (test compound 3 μM) of 43%. This compound yielded an inhibition at 10 µM (test compound 10 μM) of 85%.
Turning to `COc1cc2nccc(Oc3ccc(Cl)cc3C(=O)c3ccccc3)c2cc1OC.Cl` [Compound 69, {5-Chloro-2-[(6,7-dimethoxy-4-quinolyl)oxy]phenyl}-(phenyl)methanone hydrochloride], the “TGFβ inhibition, %” value (test compound 3 μM) is recorded as 100% and the “TGFβ inhibition, %” value (test compound 10 μM) is 100%.

Source of the values: patent publication US7560558B2, “Compound having TGFβ inhibitory activity and medicinal composition containing the same” (Kirin Beer Kabushiki Kaisha, priority 2002, dated 2009).
